Data taken from patent US20060069132A1, “Azolecarboxamide herbicides” (priority 2004, published 2006).

Tests used:
[1] = test system: giant foxtail; experiment: Test A pre-/postemergence herbicide test; format: in vivo, Setaria faberi
In short: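 Plants are held in greenhouse about ten days after treatment, then compared with untreated controls and scored 0 (no effect) to 100 (complete control). Preemergence dosing is a directed soil spray on sown sandy loam; postemergence dosing is spray to runoff at 2–10 cm height.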

[2] = test system: rice; experiment: Test B pre-/postemergence herbicide test; format: in vivo, Oryza sativa; conditions: preemergence; for Plant response rating, Rice: 500 g ai/ha
In short: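 Visual rating, 0 (no effect) to 100 (complete control), versus untreated controls after 13–15 d in greenhouse. Pre- and postemergence applications (postemergence plants 2–18 cm, 1–4 leaves); flooded paddy arm at 2-leaf stage. Compounds in non-phytotoxic solvent plus surfactant.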

[3] = test system: large crabgrass; experiment: Test C pre-/postemergence herbicide test; format: in vivo, Digitaria sanguinalis; conditions: preemergence
In short: (§1)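 Greenhouse-grown plants were evaluated visually 12 to 14 days after treatment, with 100 meaning complete control and 0 no effect. Application was preemergence, or postemergence at 2 to 18 cm.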

[4] = test system: goosegrass; experiment: Test C pre-/postemergence herbicide test; format: in vivo, Eleusine indica; conditions: preemergence
In short: as §1

[5] = test system: kochia; experiment: Test C pre-/postemergence herbicide test; format: in vivo, Kochia scoparia; conditions: preemergence
In short: as §1

[6] = test system: pigweed; experiment: Test C pre-/postemergence herbicide test; format: in vivo, Amaranthus retroflexus; conditions: preemergence
In short: as §1

[7] = test system: common ragweed; experiment: Test C pre-/postemergence herbicide test; format: in vivo, Ambrosia elatior; parameters: key to Plant response rating, Ragweed: 0 = no effect, 100 = complete control; conditions: preemergence
In short: as §1

[8] = test system: velvetleaf; experiment: Test C pre-/postemergence herbicide test; format: in vivo, Abutilon theophrasti; conditions: preemergence
In short: as §1

[9] = test system: barnyardgrass; experiment: Test C flooded paddy test; format: in vivo, Echinochloa crus-galli; conditions: for Plant response rating, Barnyardgrass: 500 g ai/ha, visual rating after 12 to 14 days
In short: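 Visual rating, 0 (no effect) to 100 (complete control), vs. controls at 12–14 d in greenhouse. Postemergence: 1–4-leaf plants, 2–18 cm. Paddy: flooded, barnyardgrass at 2-leaf stage.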

[10] = 125 g ai/ha, scale 0 (no effect) to 100 (complete control), visual, 12 to 14 days
[11] = 500 g ai/ha, scale 0 to 100 (0 no effect, 100 complete control), visual, 12 to 14 days
[12] = 62 g ai/ha, scale 0 to 100 (0 no effect, 100 complete control)
[13] = 250 g ai/ha, scale of 0 to 100, 0 is no effect, 100 is complete control
[14] = scale 0 to 100 (0 no effect, 100 complete control)

CCc1nn(C(C)(C)C)cc1C(=O)Nc1cc(C(=O)N(CC)CC)ccc1F [Compound 223]
Foxtail, Giant plant response rating ([1]; Postemergence, 500 g ai/ha, 0 to 100 scale, 0 no effect, 100 complete control): 10
Plant response rating, Foxtail, Giant ([1]; Postemergence, 2000 g ai/ha, 0 to 100 scale, 0 no effect, 100 complete control): 10
Foxtail, Giant plant response rating ([1]; Preemergence, 2000 g ai/ha, visual rating, 0 to 100 scale (0 no effect, 100 complete control)): 90
Foxtail, Giant plant response rating ([1]; preemergence, 500 g ai/ha, visual injury, 0 to 100 scale (0 no effect, 100 complete control)): 75
Rice plant response rating (0 to 100 scale) ([2]; 125 g ai/ha, 0 = no effect, 100 = complete control): 0
Plant response rating, Rice ([2]; visual rating, 0 = no effect, 100 = complete control): 30
Plant response rating, Crabgrass, Large ([3]; 62 g ai/ha, scale 0 to 100): 100
Plant response rating, Crabgrass, Large [3, 10]: 100
Plant response rating, Crabgrass, Large ([3]; 250 g ai/ha, scale 0-100): 100
Plant response rating, Crabgrass, Large [3, 11]: 100
Plant response rating, Goosegrass ([4]; 62 g ai/ha, scale 0 to 100): 60
Plant response rating, Goosegrass [4, 10]: 80
Plant response rating, Goosegrass ([4]; 250 g ai/ha, scale 0-100): 80
Plant response rating, Goosegrass [4, 11]: 100
Plant response rating, Kochia ([5]; 62 g ai/ha, scale 0 to 100): 85
Plant response rating, Kochia [5, 10]: 90
Plant response rating, Kochia ([5]; 250 g ai/ha, scale 0-100): 100
Plant response rating, Kochia [5, 11]: 100
Plant response rating, Pigweed ([6]; 62 g ai/ha, scale 0 to 100): 100
Plant response rating, Pigweed [6, 10]: 100
Plant response rating, Pigweed ([6]; 250 g ai/ha, scale 0-100): 100
Plant response rating, Pigweed [6, 11]: 100
Plant response rating, Ragweed ([7]; 250 g ai/ha, scale 0-100): 100
Plant response rating, Ragweed [7, 11]: 100
Plant response rating, Velvetleaf ([8]; 62 g ai/ha, scale 0 to 100): 0
Plant response rating, Velvetleaf ([8]; 250 g ai/ha, scale 0-100): 100
Plant response rating, Velvetleaf [8, 11]: 100
Barnyardgrass plant response rating [9, 12]: 0
Barnyardgrass plant response rating ([9]; 125 g ai/ha, scale 0 to 100 (0 no effect, 100 complete control)): 0
Barnyardgrass plant response rating [9, 13]: 0
Plant response rating, Barnyardgrass [9, 14]: 45

CCn1nc(C(C)(C)C)cc1C(=O)Nc1cccc(SC)c1 [Compound 131]
Foxtail, Giant plant response rating ([1]; Postemergence, 250 g ai/ha, 0 to 100 scale, 0 no effect, 100 complete control): 10
Plant response rating, Foxtail, Giant ([1]; Postemergence, 1000 g ai/ha, 0 to 100 scale, 0 no effect, 100 complete control): 15
Foxtail, Giant plant response rating ([1]; Preemergence, 1000 g ai/ha, visual rating, 0 to 100 scale (0 no effect, 100 complete control)): 75
Foxtail, Giant plant response rating ([1]; preemergence, 250 g ai/ha, visual injury, 0 to 100 scale (0 no effect, 100 complete control)): 10
Plant response rating, Rice ([2]; visual rating 0-100, 0 no effect, 100 complete control): 50
Plant response rating (0 = no effect, 100 = complete control), Crabgrass, Large ([3]; 62 g ai/ha): 45
Plant response rating, Crabgrass, Large [3, 10]: 90
Plant response rating, Crabgrass, Large ([3]; 250 g ai/ha, scale 0 to 100 (0 no effect, 100 complete control), visual, 12 to 14 days): 90
Plant response rating (0 = no effect, 100 = complete control), Goosegrass ([4]; 62 g ai/ha): 15
Plant response rating, Goosegrass [4, 10]: 65
Plant response rating (0 = no effect, 100 = complete control), Kochia ([5]; 62 g ai/ha): 85
Plant response rating, Kochia [5, 10]: 85
Plant response rating (0 = no effect, 100 = complete control), Pigweed ([6]; 62 g ai/ha): 95
Plant response rating, Pigweed [6, 10]: 100
Plant response rating (0 = no effect, 100 = complete control), Ragweed ([7]; 62 g ai/ha): 40
Plant response rating, Ragweed [7, 10]: 50
Plant response rating, Velvetleaf [8, 10]: 15
Barnyardgrass plant response rating [9, 12]: 0
Barnyardgrass plant response rating ([9]; 125 g ai/ha, scale of 0 to 100, 0 is no effect, 100 is complete control): 0
Barnyardgrass plant response rating [9, 13]: 10
Plant response rating, Barnyardgrass [9, 14]: 30
